In patent publication US20020049162A1, “Methods for inhibiting smooth muscle cell proliferation” (priority 2000, published 2002):
“Also recorded” adds a separate entry of the source. Square brackets hold non-standard residues; d marks the D form. Ends that are not written are not given here. Phe(4-NH2) = Nc1ccc(C[C@H](N)C(=O)O)cc1

Legend:
[1] = Unspecified earlier test of effectiveness of AII fragments; settings: test not described
[2] = system: Human coronary artery smooth muscle cells; assay: Inhibition of human smooth muscle cell proliferation (cell counts, growth rate vs wells without peptide); format: cell-based; settings: for Effect on proliferation of human smooth muscle cells (in words): compared with wells that did not contain peptide; for % Control Proliferation Day 1 vs Day 4 / % Control Proliferation Day 1 vs Day 7: percentage of the control growth rate, values below 100 = inhibition, peptides 0.1-10 μg/ml, concentration not given
AT2 receptor = settings: cited from earlier work
[3] = system: smooth muscle cell growth after vascular injury; settings: Strawn et al., Hypertension 33:207-211 (1999); cited from earlier work
smooth muscle cell = settings: Strawn et al., Hypertension 33:207-211 (1999); cited from earlier work

With Tyr—Ile—His—Pro—Phe (YIHPF) [AII(4-8)] the “Effectiveness (in words)” value [1] was “not to be effective; also recorded: ineffective”.

In the case of “Val—Tyr—Ile—His—Pro—Phe (VYIHPF) [A(3-8)]”, the “Effect on proliferation of human smooth muscle cells (in words)” value (“Effect on proliferation” for short) [2] was “inhibited smooth muscle cell proliferation”, the “% Control Proliferation Day 1 vs Day 4” value [2] was 74.7% and the “% Control Proliferation Day 1 vs Day 7” value [2] was 61.7%.

In the case of “Asp—Arg—Val—Tyr—Ile—His—Pro—Phe (DRVYIHPF) [AII, reference compound]”, the “Effect on proliferation” value [2] was “increased the proliferation”, the “% Control Proliferation Day 1 vs Day 4” value [2] was 121.4% and the “% Control Proliferation Day 1 vs Day 7” value [2] was 154.5%. The “Affinity for AT2 relative to AT1” value (AT2 receptor; higher affinity for AT2 than AT1, Speth and Kim 1990) was 100 times.

For Ile—His—Pro—Phe (IHPF) [A(5-8)], the “Effect on proliferation” value [2] was “inhibited smooth muscle cell proliferation”, the “% Control Proliferation Day 1 vs Day 4” value [2] was 63.1% and the “% Control Proliferation Day 1 vs Day 7” value [2] was 55.0%.

For DRKYIHP [Peptide 5GD], the “Effect on proliferation” value [2] was “inhibited smooth muscle cell proliferation”, the “% Control Proliferation Day 1 vs Day 4” value [2] was 86.6% and the “% Control Proliferation Day 1 vs Day 7” value [2] was 80.1%.

With His—Pro—Phe (HPF) [AII(6-8)] the “Effectiveness (in words)” value [1] was “not to be effective”.

For “Asp—Arg—Val—Tyr—Ile—Xaa—Pro—Phe (DRVYI[Phe(4-NH2)]PF) [p-aminophenylalanine6-AII]”, the “Binding characteristics (in words)” value (AT2 receptor; experimental models of Catalioto 1994, Bryson 1992) is given as “comparable to AT2 antagonists”.

With Val—Tyr—Ile—His—Pro (VYIHP) [A(3-7)] the “Effect on proliferation” value [2] was “inhibited smooth muscle cell proliferation”, the “% Control Proliferation Day 1 vs Day 4” value [2] was 80.5% and the “% Control Proliferation Day 1 vs Day 7” value [2] was 70.0%.

For DRVAIHP [Peptide 1GD], the “Effect on proliferation” value [2] was “inhibited smooth muscle cell proliferation”, the “% Control Proliferation Day 1 vs Day 4” value [2] was 55.4% and the “% Control Proliferation Day 1 vs Day 7” value [2] was 54.2%.

With “Arg—Val—Tyr—Ile—His—Pro (RVYIHP) [A(2-7)]” the “Effect on proliferation” value [2] was “inhibited smooth muscle cell proliferation”, the “% Control Proliferation Day 1 vs Day 4” value [2] was 82.4% and the “% Control Proliferation Day 1 vs Day 7” value [2] was 64.8%.

For “A(1-7): AII residues 1-7, SEQ ID NO:4 (DRVYIHP) [reference compound]”, the “% Control Proliferation Day 1 vs Day 4” value [2] is listed as 73.3%, the “% Control Proliferation Day 1 vs Day 7” value [2] is listed as 63.3% and the “Smooth muscle cell growth after vascular injury (in words)” value [3] is listed as “reduce smooth muscle cell growth after vascular injury”. For the same substance, the “Smooth muscle cell proliferation (in words)” value (smooth muscle cell) was “inhibit smooth muscle cell proliferation”.

For DRVYIH [A(1-6)], the “Effect on proliferation” value [2] was “inhibited smooth muscle cell proliferation”, the “% Control Proliferation Day 1 vs Day 4” value [2] was 76.5% and the “% Control Proliferation Day 1 vs Day 7” value [2] was 61.1%.

For DRP(OH)AIHP [Peptide 8GD], the “Effect on proliferation” value [2] was “inhibited smooth muscle cell proliferation”, the “% Control Proliferation Day 1 vs Day 4” value [2] was 72.6% and the “% Control Proliferation Day 1 vs Day 7” value [2] was 66.4%.

For Asp—Arg—Val—Tyr—Ile (DRVYI) [A(1-5)], the “% Control Proliferation Day 1 vs Day 4” value [2] was 85.9% and the “% Control Proliferation Day 1 vs Day 7” value [2] was 83.1%.
